Data taken from patent US9963455B2, “Pyrazolo[1,5-a]pyrimidines as antiviral compounds” (Curovir AB, priority 2014, dated 2018).
Like-named read-outs stand apart in the source and are kept apart here.

How the values were obtained:
Format in all cases: cell-based
[1] = system: coxsackie B virus strain 5; test: CPE inhibition in mammalian cell culture, Cox-B5; parameters: inhibition: dose or concentration left out as unconfirmed; details: read-out: antiviral effect, B5
Ljungan virus strain 012 = test: CPE inhibition in mammalian cell culture, LV012; details: Parechovirus B; for inhibition at 100 µM: Conc. 0.1 mM
polio virus strain 1 = test: microbe, parasite or virus in culture; parameters: inhibition: dose or concentration left out as unconfirmed; details: read-out: antiviral effect, Polio 1
[2] = system: coxsackie B virus strain 4; test: CPE inhibition in mammalian cell culture, Cox-B4; details: for inhibition at 0.1 µM: read-out: % inh.
[3] = system: coxsackie B virus strain 1; test: CPE inhibition in mammalian cell culture, Cox-B1; parameters: inhibition: dose or concentration left out as unconfirmed
[4] = system: Human parechovirus strain 1; test: CPE inhibition in mammalian cell culture, HPeV-1; details: Parechovirus A; for inhibition at 2.5 µM: Conc. 2.5 µM; for inhibition at 10 µM: HPeV-1, Conc. 10.0 μM, read-out: % inh.
Enterovirus strain 30 = test: CPE inhibition in mammalian cell culture, EV30; parameters: inhibition: dose or concentration left out as unconfirmed; details: read-out: antiviral effect, EV30; for inhibition at 2.5 µM: Conc. 2.5 µM
Ljungan virus strain 145 = test: CPE inhibition in mammalian cell culture, LV145; details: Parechovirus B; for inhibition at 100 µM: Conc. 0.1 mM, read-out: antiviral effect, LV145
[5] = system: coxsackie B virus strain 2; test: CPE inhibition in mammalian cell culture, Cox-B2; parameters: inhibition: dose or concentration left out as unconfirmed; details: read-out: antiviral effect, B2
[6] = system: coxsackie B virus strain 3; test: CPE inhibition in mammalian cell culture, Cox-B3; parameters: inhibition: dose or concentration left out as unconfirmed
[7] = system: encephalomyocarditis virus; test: CPE inhibition in mammalian cell culture, EMCV; details: Cardiovirus A; for inhibition at 100 µM: Conc. 0.1 mM, read-out: antiviral effect, EMCV; for inhibition at 10 µM: Conc. 10.0 μM
Enterovirus strain 71 = test: CPE inhibition in mammalian cell culture, EV71; details: for inhibition at 1 µM: EV71, Conc. 1.0 μM
[8] = Conc. 2.5 µM, read-out: antiviral effect, LV012
[9] = read-out: antiviral effect, HPeV-1
[10] = read-out: antiviral effect, LV012

COc1ccc(-c2c(C)nn3c(NCCCc4ccccc4)cc(C)nc23)cc1OC [Ex. 7, 3-(3,4-dimethoxyphenyl)-2,5-dimethyl-N-(3-phenylpropyl)pyrazolo[1,5-a]pyrimidin-7-amine]
inhibition at 2500 µM [1]: 68% | inhibition at 2.5 µM (Ljungan virus strain 012; [8]): 14% | inhibition at 2500 µM (polio virus strain 1): 80% | inhibition at 2500 µM ([2]; read-out: antiviral effect, B4): 82% | inhibition at 2500 µM ([3]; read-out: antiviral effect, B1): 77% | inhibition at 2.5 µM [4, 9]: 6% | inhibition at 2.5 µM (Enterovirus strain 30): 89% | inhibition at 2.5 µM (Ljungan virus strain 145; LV145, Conc. 2.5 μM): 54% | inhibition at 2500 µM [5]: 92%

COc1ccc(-c2cnn3c(NCc4ccc(F)cc4)cc(C)nc23)cc1OC [Ex. 99, 3-(3,4-dimethoxyphenyl)-N-[(4-fluorophenyl)methyl]-5-methyl-pyrazolo[1,5-a]pyrimidin-7-amine]
inhibition at 0.1 µM ([6]; read-out: % inh.): 100%

COc1ccc(-c2c(C)nn3c(NCc4ccc(C)nc4)cc(C)nc23)cc1OC [Ex. 92, 3-(3,4-dimethoxyphenyl)-2,5-dimethyl-N-[(6-methyl-3-pyridyl)methyl]pyrazolo[1,5-a]pyrimidin-7-amine]
inhibition [1]: 95% | inhibition at 100 µM (Ljungan virus strain 012; [10]): 0% | inhibition (polio virus strain 1): 98% | inhibition at 0.01 µM ([6]; read-out: % inh.): 100% | inhibition ([6]; read-out: antiviral effect, B3): 100% | inhibition ([3]; read-out: antiviral effect, B1): 100% | inhibition (Enterovirus strain 30): 100% | inhibition at 100 µM (Ljungan virus strain 145): 0% | inhibition [5]: 96% | inhibition at 100 µM [7]: 0%

COc1ccc(-c2c(C)nn3c(NCc4ccc(NC(C)=O)cc4)cc(C)nc23)cc1OC [Ex. 77, N-[4-[[[3-(3,4-dimethoxyphenyl)-2,5-dimethyl-pyrazolo[1,5-a]pyrimidin-7-yl]amino]methyl]phenyl]acetamide]
inhibition at 0.1 µM ([6]; read-out: % inh.): 60%

Cc1cc(NC(C)c2ccccc2)n2nc(C)c(-c3ccc(F)cc3)c2n1 (stereo not shown) [Ex. 3, 3-(4-fluorophenyl)-2,5-dimethyl-N-(1-phenylethyl)pyrazolo[1,5-a]pyrimidin-7-amine]
inhibition at 2.5 µM ([7]; EMCV, Conc. 2.5 μM): 92%

COc1ccc(-c2c(C)nn3c(NC4CCCCC4)cc(C)nc23)cc1OC [Ex. 43, N-cyclohexyl-3-(3,4-dimethoxyphenyl)-2,5-dimethyl-pyrazolo[1,5-a]pyrimidin-7-amine]
inhibition at 10 µM [4]: 46%

COc1ccc(-c2c(C)nn3c(Nc4ccon4)cc(C)nc23)cc1OC [Ex. 95, N-[3-(3,4-dimethoxyphenyl)-2,5-dimethyl-pyrazolo[1,5-a]pyrimidin-7-yl]isoxazol-3-amine]
inhibition at 10 µM [4]: 55%

COc1ccc(-c2c(C)nn3c(Nc4ccccc4)cc(C)nc23)cc1OC [Ex. 57, 3-(3,4-dimethoxyphenyl)-2,5-dimethyl-N-phenyl-pyrazolo[1,5-a]pyrimidin-7-amine]
inhibition at 10 µM [4]: 22%

COc1ccc(-c2c(C)nn3c(Nc4ccc(C(F)(F)F)cc4)cc(C)nc23)cc1OC [Ex. 73, 3-(3,4-dimethoxyphenyl)-2,5-dimethyl-N-[4-(trifluoromethyl)phenyl]pyrazolo[1,5-a]pyrimidin-7-amine]
inhibition at 0.1 µM [2]: 44%

Cc1cc(NCc2ccc(F)cc2)n2nc(C)c(-c3ccc(Cl)c(Cl)c3)c2n1 [Ex. 103, 3-(3,4-dichlorophenyl)-N-[(4-fluorophenyl)methyl]-2,5-dimethyl-pyrazolo[1,5-a]pyrimidin-7-amine]
inhibition at 10 µM ([7]; EMCV): 74%

COc1ccc(-c2c(C)nn3c(NCc4ccc(OC(F)(F)F)cc4)cc(C)nc23)cc1OC [Ex. 76, 3-(3,4-dimethoxyphenyl)-2,5-dimethyl-N-[[4-(trifluoromethoxy)phenyl]methyl]pyrazolo[1,5-a]pyrimidin-7-amine]
inhibition at 1 µM ([6]; read-out: % inh.): 100%

COc1ccc(-c2c(C)nn3c(NCc4ccc(C(C)=O)cc4)cc(C)nc23)cc1OC [Ex. 94, 1-[4-[[[3-(3,4-dimethoxyphenyl)-2,5-dimethyl-pyrazolo[1,5-a]pyrimidin-7-yl]amino]methyl]phenyl]ethanone]
inhibition [1]: 56% | inhibition at 100 µM (Ljungan virus strain 012; [10]): 12% | inhibition (polio virus strain 1): 100% | inhibition ([6]; read-out: antiviral effect, B3): 100% | inhibition at 0.01 µM ([3]; read-out: % inh.): 100% | inhibition ([3]; read-out: antiviral effect, B1): 100% | inhibition at 100 µM (Enterovirus strain 71; Conc. 0.1 mM, read-out: antiviral effect, EV71): 100% | inhibition at 100 µM (Enterovirus strain 30; Conc. 0.1 mM): 96% | inhibition at 100 µM (Ljungan virus strain 145): 0% | inhibition [5]: 100% | inhibition at 100 µM [7]: 0%

COc1ccc(-c2c(C)nn3c(Nc4ccc(Cl)cc4)cc(C)nc23)cc1OC [Ex. 47, N-(4-chlorophenyl)-3-(3,4-dimethoxyphenyl)-2,5-dimethyl-pyrazolo[1,5-a]pyrimidin-7-amine]
inhibition at 10 µM [4]: 56%

COc1ccc(-c2c(C)nn3c(NC4CCCC4)cc(C)nc23)cc1OC [Ex. 41, N-cyclopentyl-3-(3,4-dimethoxyphenyl)-2,5-dimethyl-pyrazolo[1,5-a]pyrimidin-7-amine]
inhibition at 10 µM ([7]; EMCV): 93%

Cc1cc(NCc2ccccc2)n2ncc(-c3ccc(Cl)cc3)c2n1 [Ex. 25, N-benzyl-3-(4-chlorophenyl)-5-methyl-pyrazolo[1,5-a]pyrimidin-7-amine]
inhibition at 10 µM [4]: 24%

COc1ccc(-c2c(C)nn3c(NCc4ccc(C(F)(F)F)cc4)cc(C)nc23)cc1OC [Ex. 72, 3-(3,4-dimethoxyphenyl)-2,5-dimethyl-N-[[4-(trifluoromethyl)phenyl]methyl]pyrazolo[1,5-a]pyrimidin-7-amine]
inhibition at 1000 µM [1]: 99% | inhibition at 1 µM (Ljungan virus strain 012; Conc. 1 µM, read-out: antiviral effect, LV012): 0% | inhibition at 1000 µM (polio virus strain 1): 100% | inhibition at 1000 µM ([6]; read-out: antiviral effect, B3): 99% | inhibition at 0.1 µM [2]: 85% | inhibition at 1000 µM ([2]; read-out: antiviral effect, B4): 91% | inhibition at 1000 µM ([3]; read-out: antiviral effect, B1): 100% | inhibition at 1 µM ([4]; Conc. 1 µM, read-out: antiviral effect, HPeV-1): 4% | inhibition at 1 µM (Enterovirus strain 30; Conc. 1 µM): 100% | inhibition at 1000 µM [5]: 94%

COc1ccc(CCNc2cc(C)nc3c(-c4ccc(OC)c(OC)c4)c(C)nn23)c(OC)c1 [Ex. 12, 3-(3,4-dimethoxyphenyl)-N-[2-(2,4-dimethoxyphenyl)ethyl]-2,5-dimethyl-pyrazolo[1,5-a]pyrimidin-7-amine]
inhibition at 2500 µM [1]: 82% | inhibition at 2.5 µM (Ljungan virus strain 012; [8]): 60% | inhibition at 2.5 µM (Ljungan virus strain 012; LV012, Conc. 2.5 μM, read-out: % inh.): 60% | inhibition at 2500 µM (polio virus strain 1): 73% | inhibition at 2500 µM ([2]; read-out: antiviral effect, B4): 77% | inhibition at 2500 µM ([3]; read-out: antiviral effect, B1): 93% | inhibition at 2.5 µM [4, 9]: 8% | inhibition at 2.5 µM (Enterovirus strain 30): 84%

Cc1cc(NCc2cccnc2)n2nc(C)c(-c3ccc(Cl)cc3)c2n1 [Ex. 45, 3-(4-chlorophenyl)-2,5-dimethyl-N-(3-pyridylmethyl)pyrazolo[1,5-a]pyrimidin-7-amine]
inhibition at 1 µM (Enterovirus strain 71): 100%

COc1ccc(-c2c(C)nn3c(NCc4ccc(S(C)(=O)=O)cc4)cc(C)nc23)cc1OC [Ex. 84, 3-(3,4-dimethoxyphenyl)-2,5-dimethyl-N-[(4-methylsulfonylphenyl)methyl]pyrazolo[1,5-a]pyrimidin-7-amine]
inhibition at 0.1 µM ([6]; read-out: % inh.): 84%

Cc1ccc(-c2c(C)nn3c(NCc4cccnc4)cc(C)nc23)cc1 [Ex. 34, 2,5-dimethyl-3-(p-tolyl)-N-(3-pyridylmethyl)pyrazolo[1,5-a]pyrimidin-7-amine]
inhibition at 1 µM (Enterovirus strain 71): 100%

Cc1cc(NCc2ccc(F)cc2)n2nc(C)c(-c3ccc4c(c3)OCO4)c2n1 [Ex. 102, 3-(1,3-benzodioxol-5-yl)-N-[(4-fluorophenyl)methyl]-2,5-dimethyl-pyrazolo[1,5-a]pyrimidin-7-amine]
inhibition at 1 µM ([6]; read-out: % inh.): 100%
